Data set [1] is described as follows: Powder dissolution study in water. To be noted: 500 mg in 500 mL water, 50 rpm, up to 300 min. The data set is classed as physicochemical. As for the experimental part:
Samples (2 mL) were collected at 1 min, 2 min, 5 min, 10 min, 15 min, 20 min, 30 min, 40 min, 50 min, 60 min, 80 min, 100 min, 120 min, 150 min, 180 min, 210 min, 240 min, 270 min, and 300 min. Water (2 mL) was added each time when a sample was taken. The XRPD of the solid samples were measured.

The conditions of data set [2]: comparison polymorphs, cited from earlier work.
For data set [3] the following is noted: cited from earlier work; for Hygroscopicity: Wt. increase: 5~95% RH.
A short description of data set [4]: Study of polymorphic forms of Compound A stirred in water (XRPD). The data set is classed as physicochemical. To be noted: 300 rpm. How it is done:
600 mg Compound A was placed in a 100 mL container. After 40 mL water was added, the container was stirred at 300 rpm at 20° C. After 12 hours, a sample was taken from the container and an XRPD was measured. […] The XRPD, TG, and DSC of Form E are shown in FIGS. 12, 13, and 14, respectively.
600 mg Compound A was placed in a 100 mL container. After 40 mL water was added, the container was stirred at 300 rpm at 25° C. After 48 hours, a sample was taken from the container and an XRPD was measured. […] A sample taken after 168 hours at 25° C. still had the same XRPD as the Form E polymorph described in Chinese Patent No. 1871003.
600 mg Compound A was placed in a 100 mL container. After 40 mL water was added, the container was stirred at 300 rpm at 15° C. After 10 hours, a sample was taken from the container and an XRPD was measured.

The conditions of data set [5]: comparison polymorphs, cited from earlier work. This is another data set of the same source.
The conditions of data set [6]: cited from earlier work.
The conditions of data set [7]: in acetone; comparison polymorphs; listed as B; cited from earlier work.
The nature of data set [8]: Stability of polymorphs in solution (suspension in solvent, XRPD of the solid). In kind it is physicochemical. The following applies: for Stability in solution: polymorph converted (Cv.) to: suspension kept at 20° C. for 24 hours; for Stability in solution: polymorphic form: ethanol, acetonitrile, tetrahydrofuran, ethyl acetate, and dioxane, 20° C. for 24 hours. As for the experimental part: 15 mg of the polymorph obtained in Example 1 was placed in a 2 mL container. 1 mL of the each of the following solvents was added: methanol, ethanol, acetone, acetonitrile, tetrahydrofuran, nitromethane, ethyl acetate, or dioxane. The container was sonicated to dissolve Compound A. The resulting supersaturated suspension was kept at 20° C. for 24 hours. After centrifugation, the supernatant was removed, and the solid was dried at 45° C. for 2 hours. The XRPD of the solid was measured.
15 mg of the polymorph obtained in Example 4 was placed in a 2 mL container. 1 mL of the each of the following solvents was added: methanol, ethanol, acetone, acetonitrile, tetrahydrofuran, ethyl acetate, dioxane, or water. The container was sonicated to dissolve Compound A. The resulting supersaturated suspension was kept at 20° C. for 24 hours. After centrifugation, the supernatant was removed, and the solid was dried at 45° C. for 2 hours. The XRPD of the solid was measured.

Data set [9] in a line: Hygroscopicity, dynamic vapor sorption (DVS). To be noted: 25° C., 1~95% RH. The data set is classed as physicochemical. As for the experimental part:
About 3 mg Form DH prepared in Example 1 was subject to dynamic vapor sorption analysis with a VTI-SA+ type dynamic vapor sorption analyzer (US TA Instruments Company). The temperature was 25° C., and the range of the relative humidity was 1-95%.
About 3 mg Form α prepared in Example 4 was subject to Dynamic Vapor Sorption analysis with a VTI-SA+ type dynamic vapor sorption analyzer (US TA Instruments Company). The temperature was 25° C., and the range of the relative humidity was 1-95%.

The nature of data set [10]: Crystallinity of polymorphs. In kind it is physicochemical. The following applies: polymorphs of the application. As for the experimental part: XRPD patterns of the polymorphs obtained in the Examples were collected on a D/MAX 2500 diffractometer using the following setting: Cu Kα radiation λ 1.5418 Å, 40 kV, 200 mA, […] 2-40° at 8°/min.
Data set [11] can be described thus: Accelerated stability studies (storage, XRPD).
Method: 10 mg of Form DH or Form α of the present application was each put in a testing tube. The testing tubes were placed separately in sealed storage bags. The bags were stored under 40° C./75% RH or RT/P2O5. Samples of the polymorph were collected at day 1, day 3, day 5, day 7, day 14, day 21, and day 28 for XRPD measurement.
A short description of data set [12]: Thermal stability (polymorph conversion on heating, XRPD). In kind it is physicochemical. How it is done: In one embodiment, Form DH converts to a different polymorph at an elevated temperature (e.g., 170° C. or higher). In one embodiment, when heated to 170° C., Form DH converts to a polymorph characterized by an XRPD pattern substantially similar to that set forth in FIG. 10 (“Form F”). In one embodiment, when heated to 190° C., Form DH converts to a polymorph characterized by an XRPD pattern substantially similar to that set forth in FIG. 11 (“Form A”).
In one embodiment, Form α converts to a different polymorph at an elevated temperature (e.g., 230° C. or higher). In one embodiment, when heated to 230° C., Form α converts to a polymorph characterized by an XRPD pattern substantially similar to that set forth in FIG. 26 (“Form A”).

SMILES strings stand for the structures. “Also recorded” adds a separate entry of the source. Where two headings read alike, the source gives them in different places.

With `Nc1cccc2c1CN(C1CCC(=O)NC1=O)C2=O` (centres unmarked) [Compound A, 3-(4-amino-1-oxoisoindolin-2-yl)piperidine-2,6-dione], the “Dissolution: crystal conversion (Cv.) during powder dissolution” value (shortened to “Dissolution: crystal conversion”) in [1] is recorded as “Form E”. Moreover, in data set [2], the Crystallinity result is “Good”. Also, the “Hygroscopicity: Wt. increase” value in data set [3] is reported as “No significant”. Moreover, the “Polymorphic form by XRPD after stirring in water” value is recorded as “Form DH” in data set [4] (15° C., 34 hours); “Form E” in [4] (15° C., after 10 hours); “Form DH” in data set [4] (20° C., 108 hours); “Form E” in data set [4] (20° C., after 12 hours); “Form E” in data set [4] (25° C., after 48 hours); “Form E” in data set [4] (25° C., after 168 hours). Besides, the Thermal stability result in data set [5] (temperature not given) was “No Cv”.

As for `Nc1cccc2c1CN(C1CCC(=O)NC1=O)C2=O` (centres unmarked) [Form B, 3-(4-amino-1-oxoisoindolin-2-yl)piperidine-2,6-dione], the Accelerated stability entry in [6] (85 days at 40° C./93% RH) and in [6] (85 days at RT/0% RH) was “Stable for 85” throughout. Moreover, the Crystallinity entry in data set [2] (listed as B) is “Good”. Further, the “Stability in solution: polymorph converted (Cv.) to” value (“Stability in solution … (Cv.) to” for short) in data set [7] is on record as “THF, to Form C”. In addition, the “Hygroscopicity: Wt. increase” value in [3] is on record as “No significant”. The “Thermal stability: polymorph converted (Cv.) to” value (shortened to “Thermal stability … (Cv.) to”) in [5] (at 175° C.) is given as “Cv. to Form A at”.

With `Nc1cccc2c1CN(C1CCC(=O)NC1=O)C2=O` (centres unmarked) [Form C, 3-(4-amino-1-oxoisoindolin-2-yl)piperidine-2,6-dione], the Crystallinity result in data set [2] (listed as C) is given as “Good”. For the same compound, the “Hygroscopicity: Wt. loss” value in [3] (at 95% RH) is “by 6.03% at”.

`Nc1cccc2c1CN(C1CCC(=O)NC1=O)C2=O` (centres unmarked) [Form D, 3-(4-amino-1-oxoisoindolin-2-yl)piperidine-2,6-dione]: in [2] (listed as D), the Crystallinity result was “Good”.

For the compound `Nc1cccc2c1CN(C1CCC(=O)NC1=O)C2=O` (centres unmarked) [Form DH, 3-(4-amino-1-oxoisoindolin-2-yl)piperidine-2,6-dione], the “Dissolution: crystal conversion” value in data set [1] is listed as “did not change”. Also, the “Stability in solution … (Cv.) to” value in data set [8] (in acetone) was “Form C”; in [8] (in acetone, listed as DH) it was “Form C in”. In addition, the “Stability in solution: polymorphic form” value in [8] (in water, methanol) is on record as “maintained its polymorphic form as Form DH; also recorded: stable”. The “Hygroscopicity: Wt. increase” value in data set [9] is “No weight increase”; in data set [9] (listed as DH), “No significant”. The “Hygroscopicity: crystal form after DVS” value is “remained unchanged” in data set [9] and “No change” in data set [9] (listed as DH). Further, the Crystallinity result in [10] is recorded as “Good”. Moreover, the “Accelerated stability (stable, or polymorph converted to)” value in data set [11] (28 days at 40° C./75% RH) is reported as “stable”; in data set [11] (28 days at 40° C./75% RH, listed as DH), “Stable”. For the same compound, the results for the “Thermal stability … (Cv.) to” value in data set [12] (heated to 170° C.) and in data set [12] (heated to 190° C.) were “Form F” and “Form A”, respectively.

Consider `Nc1cccc2c1CN(C1CCC(=O)NC1=O)C2=O` (centres unmarked) [Form E, 3-(4-amino-1-oxoisoindolin-2-yl)piperidine-2,6-dione], for which, in data set [2] (listed as E), the Crystallinity result is listed as “Good”.

Regarding `Nc1cccc2c1CN(C1CCC(=O)NC1=O)C2=O` (centres unmarked) [Form H, 3-(4-amino-1-oxoisoindolin-2-yl)piperidine-2,6-dione], the Crystallinity result in data set [2] is given as “relatively poor”.

Regarding `Nc1cccc2c1CN(C1CCC(=O)NC1=O)C2=O` (stereo not drawn) [Form α, 3-(4-amino-1-oxoisoindolin-2-yl)piperidine-2,6-dione], the “Dissolution: crystal conversion” value in data set [1] was “Form E”. In addition, in [8] (in methanol, acetone), the “Stability in solution: polymorphic form” value is reported as “stable; also recorded: maintained its polymorphic form as Form α”. The “Stability in solution … (Cv.) to” value in data set [8] (in water) was “Form DH”. Further, the “Hygroscopicity: crystal form after DVS” value is “remained unchanged” in data set [9] and “No change” in data set [9] (listed as α). The “Hygroscopicity: Wt. increase” value in data set [9] (listed as α) is given as “No significant”. In addition, the Crystallinity entry in data set [10] was “Good”. For the same compound, the “Accelerated stability (stable, or polymorph converted to)” value in data set [11] (28 days at RT/P2O5) is “did not change”; in data set [11] (28 days at RT/P2O5, listed as α), “Stable after”. Further, in data set [12] (heated to 230° C.), the “Thermal stability … (Cv.) to” value is recorded as “Form A”.
